Laboratory results: article PMC8979220 (RSC Advances, 2022)
Values after ≈ are worked out from the molar mass of the structure shown.

Target: acetylcholinesterase (acetyl cholinesterase)
Assay: in vitro AChE inhibition assay
Type: biochemical, Electrophorus electricus

O=C1C(=O)N(CCOc2ccccc2)c2ccccc21 [PI1, 1-(2-Phenoxyethyl)indoline-2,3-dione]
IC50 (μg ml^-1) ± SEM: 0.52 ± 0.073 µg/mL (≈ 1.95 µM)

O=C1C(=O)N(CCOc2ccc(Cl)cc2)c2ccccc21 [PI2, 1-(2-(4-Chlorophenoxy)ethyl)indoline-2,3-dione]
IC50 (μg ml^-1) ± SEM: 0.72 ± 0.012 µg/mL (≈ 2.39 µM)

O=C1C(=O)N(CCOc2ccc(F)cc2)c2ccccc21 [PI4, 1-(2-(4-Fluorophenoxy)ethyl)indoline-2,3-dione]
IC50 (μg ml^-1) ± SEM: 0.68 ± 0.011 µg/mL (≈ 2.38 µM)

O=C1C(=O)N(CCOc2ccc(Cl)cc2)c2ccc(Cl)cc21 [PI6, 5-Chloro-1-(2-(4-chlorophenoxy)ethyl)indoline-2,3-dione]
IC50 (μg ml^-1) ± SEM: 0.91 ± 0.015 µg/mL (≈ 2.71 µM)

O=C1C(=O)N(CCOc2ccccc2)c2ccc(Br)cc21 [PI9, 5-Bromo-1-(2-phenoxyethyl)indoline-2,3-dione]
IC50 (μg ml^-1) ± SEM: 0.91 ± 0.083 µg/mL (≈ 2.63 µM)

O=C1C(=O)N(CCOc2ccc(Cl)cc2)c2ccc(Br)cc21 [PI10, 5-Bromo-1-(2-(4-chlorophenoxy)ethyl)indoline-2,3-dione]
IC50 (μg ml^-1) ± SEM: 0.98 ± 0.055 µg/mL (≈ 2.57 µM)

O=C1C(=O)N(CCOc2ccc(Br)cc2)c2ccc(Br)cc21 [PI11, 5-Bromo-1-(2-(4-bromophenoxy)ethyl)indoline-2,3-dione]
IC50 (μg ml^-1) ± SEM: 1.14 ± 0.013 µg/mL (≈ 2.68 µM)

O=C1C(=O)N(CCOc2ccc(F)cc2)c2ccc(Br)cc21 [PI12, 5-Bromo-1-(2-(4-fluorophenoxy)ethyl)indoline-2,3-dione]
IC50 (μg ml^-1) ± SEM: 1.31 ± 0.083 µg/mL (≈ 3.6 µM)
